Patent publication US6737383B1, “Herbicidal oxadiazolidines” (priority 1999, dated 2004)

Columns and labels:
[1] = tested on: velvetleaf; assay: Test B pre/postemergence velvetleaf; assay type: in vivo, Abutilon theophrasti
Procedure, shortened: (§1)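 Response is a visual 0-to-10 score relative to untreated plants, where 0 means no effect and 10 means complete control, taken twelve to sixteen days after application. Treatments went onto soil at planting and onto foliage of 1- to 4-leaf plants, using a surfactant-containing non-phytotoxic solvent.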

[2] = tested on: bedstraw; assay: Test B pre/postemergence bedstraw; assay type: in vivo, Galium aparine
Procedure, shortened: as §1

[3] = tested on: smallflower flatsedge; assay: Test B flood test smallflower flatsedge; assay type: in vivo, Cyperus difformis
Procedure, shortened: (§2)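 Plants were grown to the 2-leaf stage before treatment with test chemical, then held in a greenhouse for twelve to sixteen days. Injury was visually rated against untreated controls on a 0–10 scale, where 0 is no effect and 10 is complete control.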

[4] = tested on: duck salad; assay: Test B flood test duck salad; assay type: in vivo, Heteranthera limosa
Procedure, shortened: as §2

[5] = tested on: rape; assay: Test B pre/postemergence rape; assay type: in vivo, Brassica napus
Procedure, shortened: as §1

[6] = tested on: bamyardgrass; assay: Test B flood test barnyardgrass; assay type: in vivo, Echinochloa crus-galli
Procedure, shortened: as §2

[7] = tested on: wheat; assay: Test B pre/postemergence wheat; assay type: in vivo, Triticum aestivum
Procedure, shortened: as §1

[8] = tested on: pigweed; assay: Test B pre/postemergence pigweed; assay type: in vivo, Amaranthus retroflexus
Procedure, shortened: as §1

[9] = tested on: wild oat; assay: Test B pre/postemergence wild oat; assay type: in vivo, Avena fatua
Procedure, shortened: as §1

[10] = tested on: morningglory; assay: Test B pre/postemergence morningglory; assay type: in vivo, Ipomoea hederacea
Procedure, shortened: as §1

[11] = tested on: purple nutsedge; assay: Test B pre/postemergence purple nutsedge; assay type: in vivo, Cyperus rotundus
Procedure, shortened: as §1

[12] = tested on: blackgrass; assay: Test B pre/postemergence blackgrass; assay type: in vivo, Alopecurus myosuroides
Procedure, shortened: as §1

[13] = tested on: soybean; assay: Test B pre/postemergence soybean; assay type: in vivo, Glycine max
Procedure, shortened: as §1

[14] = tested on: rice; assay: Test B flood test rice; assay type: in vivo, Oryza sativa
Procedure, shortened: as §2

[15] = tested on: sugar beet; assay: Test B pre/postemergence sugar beet; assay type: in vivo, Beta vulgaris
Procedure, shortened: as §1

[16] = tested on: giant foxtail; assay: Test B pre/postemergence giant foxtail; assay type: in vivo, Setaria faberii
Procedure, shortened: as §1

[17] = Postemergence, Rate 62 g/ha, scale 0 to 10, 0 is no effect, 10 is complete control
[18] = Postemergence, Rate 250 g/ha, scale 0 to 10, 0 no effect, 10 complete control
[19] = Preemergence, Rate 62 g/ha, scale 0 to 10 (0 no effect, 10 complete control)
[20] = Preemergence, Rate 125 g/ha, scale 0 to 10 (0 no effect, 10 complete control)
[21] = Preemergence, Rate 250 g/ha, scale of 0 to 10 where 0 is no effect and 10 is complete control
[22] = Preemergence, Rate 500 g/ha, scale 0 (no effect) to 10 (complete control)
[23] = Rate 125 g/ha, Postemergence, scale 0 to 10, 0 no effect, 10 complete control
[24] = Rate 500 g/ha, Postemergence, scale 0 to 10, 0 no effect, 10 complete control
[25] = Rate 125 g/ha, Postemergence section (flood test species), scale 0 to 10, 0 no effect, 10 complete control
[26] = Rate 500 g/ha, listed under Postemergence (flood test species), scale 0 to 10, 0 no effect, 10 complete control
[27] = flood test, listed under Postemergence, Rate 250 g/ha, scale 0 to 10, 0 no effect, 10 complete control

Cc1cc(C)c(-n2c(=O)on(C(=O)N(c3ccc(Cl)cc3)C(C)C)c2=O)c(C)c1 [Compound 61]
Velvetleaf plant response rating [1, 17]: 0 | Velvetleaf plant response rating [1, 18]: 0 | Velvetleaf plant response rating [1, 19]: 0 | Plant response rating, Velvetleaf [1, 20]: 0 | Plant response rating, Velvetleaf [1, 21]: 0 | Velvetleaf plant response rating [1, 22]: 0 | Velvetleaf plant response rating [1, 23]: 0 | Velvetleaf plant response rating [1, 24]: 0 | Bedstraw plant response rating [2, 17]: 2 | Bedstraw plant response rating [2, 18]: 6 | Bedstraw plant response rating [2, 19]: 0 | Plant response rating, Bedstraw [2, 20]: 0 | Plant response rating, Bedstraw [2, 21]: 2 | Bedstraw plant response rating [2, 22]: 2 | Bedstraw plant response rating [2, 23]: 3 | S. Flatsedge plant response rating [3, 17]: 0 | S. Flatsedge plant response rating [3, 25]: 0 | S. Flatsedge plant response rating [3, 26]: 0 | S. Flatsedge plant response rating [3, 27]: 0 | Ducksalad plant response rating [4, 17]: 0 | Ducksalad plant response rating [4, 25]: 0 | Ducksalad plant response rating [4, 26]: 0 | Ducksalad plant response rating [4, 27]: 0 | Rape plant response rating [5, 17]: 0 | Rape plant response rating [5, 18]: 0 | Rape plant response rating [5, 19]: 0 | Plant response rating, Rape [5, 20]: 0 | Plant response rating, Rape [5, 21]: 0 | Rape plant response rating [5, 22]: 0 | Rape plant response rating [5, 23]: 0 | Rape plant response rating [5, 24]: 3 | Barnyardgrass plant response rating [6, 17]: 0 | Barnyardgrass plant response rating [6, 25]: 0 | Barnyardgrass plant response rating [6, 26]: 0 | Barnyardgrass plant response rating [6, 27]: 0 | Wheat plant response rating [7, 17]: 0 | Wheat plant response rating [7, 18]: 0 | Wheat plant response rating [7, 19]: 0 | Plant response rating, Wheat [7, 20]: 0 | Plant response rating, Wheat [7, 21]: 0 | Wheat plant response rating [7, 22]: 0 | Wheat plant response rating [7, 23]: 0 | Wheat plant response rating [7, 24]: 0 | Redroot pigweed plant response rating [8, 17]: 1 | Redroot pigweed plant response rating [8, 18]: 3 | Redroot pigweed plant response rating [8, 19]: 0 | Plant response rating, Redroot pigweed [8, 20]: 0 | Plant response rating, Redroot pigweed [8, 21]: 1 | Redroot pigweed plant response rating [8, 22]: 3 | Redroot pigweed plant response rating [8, 23]: 2 | Redroot pigweed plant response rating [8, 24]: 4 | Wild oats plant response rating [9, 17]: 0 | Wild oats plant response rating [9, 18]: 0 | Wild oats plant response rating [9, 19]: 0 | Plant response rating, Wild oats [9, 20]: 0 | Plant response rating, Wild oats [9, 21]: 0 | Wild oats plant response rating [9, 22]: 3 | Wild oats plant response rating [9, 23]: 0 | Wild oats plant response rating [9, 24]: 0 | Morningglory plant response rating [10, 17]: 2 | Morningglory plant response rating [10, 18]: 4 | Morningglory plant response rating [10, 19]: 0 | Plant response rating, Morningglory [10, 20]: 0 | Plant response rating, Morningglory [10, 21]: 0 | Morningglory plant response rating [10, 22]: 0 | Morningglory plant response rating [10, 23]: 2 | Morningglory plant response rating [10, 24]: 8 | Nutsedge plant response rating [11, 17]: 0 | Nutsedge plant response rating [11, 18]: 0 | Nutsedge plant response rating [11, 19]: 0 | Plant response rating, Nutsedge [11, 20]: 0 | Plant response rating, Nutsedge [11, 21]: 0 | Nutsedge plant response rating [11, 22]: 0 | Nutsedge plant response rating [11, 23]: 0 | Nutsedge plant response rating [11, 24]: 0 | Blackgrass plant response rating [12, 17]: 0 | Blackgrass plant response rating [12, 18]: 6 | Blackgrass plant response rating [12, 19]: 0 | Plant response rating, Blackgrass [12, 20]: 0 | Plant response rating, Blackgrass [12, 21]: 5 | Blackgrass plant response rating [12, 22]: 6 | Blackgrass plant response rating [12, 23]: 3 | Blackgrass plant response rating [12, 24]: 7 | Soybean plant response rating [13, 17]: 1 | Soybean plant response rating [13, 18]: 4 | Soybean plant response rating [13, 19]: 0 | Plant response rating, Soybean [13, 20]: 0 | Plant response rating, Soybean [13, 21]: 0 | Soybean plant response rating [13, 22]: 0 | Soybean plant response rating [13, 23]: 3 | Soybean plant response rating [13, 24]: 5 | Rice plant response rating [14, 17]: 0 | Rice plant response rating [14, 25]: 0 | Rice plant response rating [14, 26]: 0 | Rice plant response rating [14, 27]: 0 | Sugarbeets plant response rating [15, 17]: 0 | Sugarbeets plant response rating [15, 18]: 2 | Sugarbeets plant response rating [15, 19]: 0 | Plant response rating, Sugarbeets [15, 20]: 0 | Plant response rating, Sugarbeets [15, 21]: 5 | Sugarbeets plant response rating [15, 22]: 6 | Sugarbeets plant response rating [15, 23]: 2 | Sugarbeets plant response rating [15, 24]: 6 | Giant foxtail plant response rating [16, 17]: 0 | Giant foxtail plant response rating [16, 18]: 0 | Giant foxtail plant response rating [16, 19]: 3 | Plant response rating, Giant foxtail [16, 20]: 7 | Plant response rating, Giant foxtail [16, 21]: 9 | Giant foxtail plant response rating [16, 22]: 10 | Giant foxtail plant response rating [16, 23]: 0 | Giant foxtail plant response rating [16, 24]: 0
